Measurements: patent US20090048218A1, “17Beta-CYANO-18A-HOMO-19-NOR-ANDROST-4-ENE DERIVATIVE, ITS USE AND MEDICAMENTS COMPRISING THE DERIVATIVE” (priority 2007, published 2009)
Like-named read-outs stand apart in the source and are kept apart here.

Columns and labels:
[1] = target: T1, PR (Rattus norvegicus, UniProt Q63449); test: maintenance of pregnancy test on the rat; format: in vivo; conditions: ovarectomized pregnant rats; for PR in vivo ED50 (pregnancy-maintaining dose): s.c. once daily from day 8 to day 15 or 21, with oestrone 5 μg/kg/day
T1 construct: The maintenance of pregnancy test on ovarectomized rats serves for the determination of the peripheral gestagenic activity of a compound; from tissue; host or cells: whole animal: pregnant, ovariectomized rats
T1 sequence (Q63449 1-923): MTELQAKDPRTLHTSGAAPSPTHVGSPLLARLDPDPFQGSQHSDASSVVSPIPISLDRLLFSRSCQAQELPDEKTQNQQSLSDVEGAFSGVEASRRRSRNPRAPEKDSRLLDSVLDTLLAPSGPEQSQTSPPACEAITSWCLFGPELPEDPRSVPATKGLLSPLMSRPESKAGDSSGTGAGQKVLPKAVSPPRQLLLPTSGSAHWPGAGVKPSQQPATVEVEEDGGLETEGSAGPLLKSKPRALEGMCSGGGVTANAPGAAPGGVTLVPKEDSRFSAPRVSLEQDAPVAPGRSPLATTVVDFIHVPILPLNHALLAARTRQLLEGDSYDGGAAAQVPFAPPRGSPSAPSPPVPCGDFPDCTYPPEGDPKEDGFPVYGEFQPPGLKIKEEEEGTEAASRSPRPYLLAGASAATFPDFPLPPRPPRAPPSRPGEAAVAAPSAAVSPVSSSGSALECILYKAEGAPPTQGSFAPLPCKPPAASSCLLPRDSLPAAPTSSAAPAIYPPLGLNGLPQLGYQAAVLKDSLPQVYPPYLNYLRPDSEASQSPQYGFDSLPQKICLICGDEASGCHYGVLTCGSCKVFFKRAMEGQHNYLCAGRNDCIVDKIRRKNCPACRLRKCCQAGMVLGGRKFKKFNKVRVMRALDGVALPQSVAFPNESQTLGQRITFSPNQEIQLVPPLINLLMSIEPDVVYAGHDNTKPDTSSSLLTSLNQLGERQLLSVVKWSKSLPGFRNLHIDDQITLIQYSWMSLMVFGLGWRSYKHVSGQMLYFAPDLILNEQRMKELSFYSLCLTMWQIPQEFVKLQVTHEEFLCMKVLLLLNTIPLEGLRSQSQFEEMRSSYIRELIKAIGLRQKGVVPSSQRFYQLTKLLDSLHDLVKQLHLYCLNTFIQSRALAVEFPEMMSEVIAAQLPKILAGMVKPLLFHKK
Excerpt: Carrying out the maintenance of pregnancy test on the rat:
In pregnant rats, the removal of the corpora lutea or oophorectomy induces an abortion. By means of the exogenous administration of progestins (gestagens) in combination with a suitable dose of an oestrogen, the maintenance of pregnancy is possible. The maintenance of pregnancy test on ovarectomized rats serves for the determination of the peripheral gestagenic activity of a compound.
Rats were paired overnight during proestrus. Pairing was checked on the morning of the following day by the appraisal of a vaginal smear. The presence of the sperm was evaluated here as day 1 of a commencing pregnancy. On day 8 of the pregnancy, the animals were ovarectomized under ether anaesthesia. The treatment with test compound and exogenous oestrogen (oestrone, 5 μg/kg/day) was carried out subcutaneously once daily from day 8 to day 15 or day 21 of the pregnancy. The first administration on day 8 was carried out two hours before oophorectomy. Intact control animals were given exclusively vehicle.
At the end of the experiment (day 15 or day 21), the animals were sacrificed under a CO2 atmosphere, and live foetuses (foetuses having a beating heart) and implantation sites (early resorptions and dead foetuses including autolysis and atrophic placentas) were counted in both uterine horns. On day 22, it was moreover possible to examine foetuses for malformations. In uteri without foetuses or implantation sites, the number of nidation sites was determined by staining with 10% strength ammonium sulphide solution. The maintenance of pregnancy rate was calculated as the quotient of the number of living foetuses and the total number of nidation sites (both resorbed and dead foetuses and nidation sites). For drospirenone, this value is 3.5 mg/kg/day.

[2] = target: T2, mineralcorticoid receptor (MR) (Homo sapiens, UniProt P08235); test: MR antagonism, luciferase reporter cell line assay; format: cell-based
T2 sequence (P08235 1-984): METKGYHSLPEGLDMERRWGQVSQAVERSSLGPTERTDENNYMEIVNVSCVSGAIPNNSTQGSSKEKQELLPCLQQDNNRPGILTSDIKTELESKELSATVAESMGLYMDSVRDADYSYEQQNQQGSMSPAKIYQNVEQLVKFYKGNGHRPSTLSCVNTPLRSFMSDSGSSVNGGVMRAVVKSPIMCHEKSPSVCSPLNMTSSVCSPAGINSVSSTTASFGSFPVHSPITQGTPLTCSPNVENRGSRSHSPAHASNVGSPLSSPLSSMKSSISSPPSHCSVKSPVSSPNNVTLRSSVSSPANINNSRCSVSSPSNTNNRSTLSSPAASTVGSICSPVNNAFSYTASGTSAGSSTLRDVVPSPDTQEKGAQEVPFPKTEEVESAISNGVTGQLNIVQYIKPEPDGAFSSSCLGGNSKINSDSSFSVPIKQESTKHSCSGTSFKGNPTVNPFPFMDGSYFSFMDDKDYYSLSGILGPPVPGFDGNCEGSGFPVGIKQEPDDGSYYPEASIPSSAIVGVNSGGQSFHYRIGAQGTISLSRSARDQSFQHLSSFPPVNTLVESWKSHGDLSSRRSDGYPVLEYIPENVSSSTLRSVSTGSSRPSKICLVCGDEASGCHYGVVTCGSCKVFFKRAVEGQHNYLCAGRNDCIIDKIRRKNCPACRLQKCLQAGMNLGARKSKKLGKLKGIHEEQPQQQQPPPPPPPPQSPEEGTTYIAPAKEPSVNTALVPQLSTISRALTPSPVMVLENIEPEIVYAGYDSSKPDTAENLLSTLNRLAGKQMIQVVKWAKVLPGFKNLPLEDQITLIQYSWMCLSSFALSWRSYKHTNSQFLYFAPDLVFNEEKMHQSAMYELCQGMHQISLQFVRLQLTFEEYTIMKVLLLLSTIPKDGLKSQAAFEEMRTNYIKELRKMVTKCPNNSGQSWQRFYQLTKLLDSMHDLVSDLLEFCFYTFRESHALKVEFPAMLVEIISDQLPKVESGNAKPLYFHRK
Description: The derivatives according to the invention having the general chemical formula 1 have a very strong gestagenic activity. […] They should therefore have in vivo potassium-retaining, natriuretic (antimeralcorticoid) action. These properties were determined using the test described below:
For the culturing of the cells used for the assay, the culture medium used was DMEM (Dulbecco's Modified Eagle Medium: […] of glucose; PAA, #E15-009) with 10% FCS (Biochrom, S0115, batch #615B), 4 mM L-glutamine, 1% penicillin/streptomycin, 1 mg/ml of G418 and 0.5 μg/ml of puromycin.
Reporter cell lines were grown in a density of 4×10^4 cells per hollow in white, nontransparent tissue culture plates in each case having 96 hollows (PerkinElmer, #P12-106-017) and kept in 6% DCC—FCS (activated carbon-treated serum, for the removal of interfering components contained in the serum). The compounds to be investigated were added eight days later, and the cells were incubated with the compounds for 16 hours. The experiments were carried out in triplicate. At the end of the incubation, the effector-containing medium was removed and replaced by lysis buffer. After luciferase assay substrate (promega, #E1501) had been added, the plates containing the 96 hollows were then introduced into a microplate luminometer (Pherastar, BMG labtech), and the luminescence was measured. The IC50 values were evaluated using software for the calculation of dose-activity relationships.

[3] = reporter cell lines, 16 hours incubation, luciferase luminescence, triplicate
[4] = reporter cell lines, 16 hours incubation, luciferase luminescence, triplicate, read-out: MR antagonism IC50

Row | SMILES | PR in vivo ED50 (pregnancy-maintaining dose) [1] | MR antagonism activity [% of the maximum effect] [2, 3] | IC50 [2, 4] | IC50 [2] | pregnancy-maintaining dose (ED50) ([1]; subcutaneous, with oestrone 5 μg/kg/day)
1 | CC[C@]12CC[C@H]3[C@@H](CCC4=CC(=O)CC[C@@H]43)[C@@H]1[C@@H]1C[C@@H]1[C@]2(C)C#N [17β-Cyano-17α-methyl-15β,16β-methylene-18a-homo-19-nor-androst-4-en-3-one] | 0.1 mg/kg/d s.c. | 64.87 % of the maximum effect | 0.00048 µM |  | 
2 | CC[C@]12CC[C@H]3[C@@H](CCC4=CC(=O)CC[C@@H]43)[C@@H]1[C@@H]1C[C@@H]1[C@@H]2C#N (single isomer, unassigned) [17β-Cyano-15β,16β-methylene-18a-homo-19-nor-androst-4-en-3-one] | 0.01 mg/kg/d s.c. | 103.44 % of the maximum effect |  | 0.018 µM | 
3 | CC[C@]12CC[C@H]3[C@@H](CCC4=CC(=O)CC[C@@H]43)[C@@H]1CC[C@@H]2C#N [17β-Cyano-18a-homo-19-nor-androst-4-en-3-one] | 2.3 mg/kg/d s.c. | 94.48 % of the maximum effect | 0.0091 µM |  | 
4 | CC[C@]12CC[C@H]3[C@@H]([C@@H]4C[C@@H]4C4=CC(=O)CC[C@@H]43)[C@@H]1[C@@H]1C[C@@H]1[C@]2(C)C#N [17β-Cyano-17α-methyl-6α,7α-methylene-15β,16β-methylene-18a-homo-19-nor-androst-4-en-3-one] | 1.1 mg/kg/d s.c. | 89.49 % of the maximum effect | 0.1 µM |  | 
5 | C[C@]12CCC(=O)C=C1[C@@H]1C[C@@H]1[C@H]1[C@@H]3[C@@H]4C[C@@H]4[C@@]4(CCC(=O)O4)[C@@]3(C)CC[C@@H]12 [drospirenone, 6β, 7β-15β,16β-dimethylene-3-oxo-17-pregn-4-ene-21,17β-carbolactone, reference compound] |  |  |  |  | 3.5 mg/kg/day
6 | CC[C@]12CC[C@H]3[C@@H]([C@H]4C[C@H]4C4=CC(=O)CC[C@@H]43)[C@@H]1[C@@H]1C[C@@H]1[C@@H]2C#N [17β-Cyano-6β,7β-15β,16β-bismethylene-18a-homo-19-nor-androst-4-en-3-one] | 0.1 mg/kg/d s.c. | 97.52 % of the maximum effect | 0.0093 µM |  | 
7 | CC[C@]12CC[C@H]3[C@@H]([C@H](C)CC4=CC(=O)CC[C@@H]43)[C@@H]1CC[C@@H]2C#N [17β-Cyano-7α-methyl-18a-homo-19-nor-androst-4-en-3-one] |  | 99.07 % of the maximum effect | 0.016 µM |  | 
